Values of other authors as cited in patent US6852335B2, “Folic acid in solid dosage forms” (Shaklee Corporation, priority 1999, dated 2005).

Conditions: 25° C. (The Merck Index, 12th edition)

SMILES: Nc1nc2ncc(CNc3ccc(C(=O)N[C@@H](CCC(=O)O)C(=O)O)cc3)nc2c(=O)[nH]1 [Folic acid]
- solubility in water: approximately 1.6 mcg/ml
